Reference: ChEMBL document CHEMBL6092140, “Structure-activity relationship study of small-molecule inhibitor of Atg12-Atg3 protein-protein interaction” (Bioorg Med Chem Lett, 2024)
The source made the active and inactive calls. The rule behind the calls is not given here.

Experiments:
[1] = Inhibition of wild type ATG12-ATG3 protein protein interaction (unknown origin) expressed in HEK293T cells preincubated for ATG12 for 1 hr followed by ATG3 addition by luminescence based microplate analysis; format: cell-based, Homo sapiens
[2] = target: Casein kinase II subunit alpha' (Homo sapiens) (UniProt P19784); test: Inhibition of […] (unknown origin) assessed as residual activity relative to control; parameters: concentration or dose not given beside the values
Sequence of Casein kinase II subunit alpha' (Homo sapiens) (P19784 whole entry, looked up): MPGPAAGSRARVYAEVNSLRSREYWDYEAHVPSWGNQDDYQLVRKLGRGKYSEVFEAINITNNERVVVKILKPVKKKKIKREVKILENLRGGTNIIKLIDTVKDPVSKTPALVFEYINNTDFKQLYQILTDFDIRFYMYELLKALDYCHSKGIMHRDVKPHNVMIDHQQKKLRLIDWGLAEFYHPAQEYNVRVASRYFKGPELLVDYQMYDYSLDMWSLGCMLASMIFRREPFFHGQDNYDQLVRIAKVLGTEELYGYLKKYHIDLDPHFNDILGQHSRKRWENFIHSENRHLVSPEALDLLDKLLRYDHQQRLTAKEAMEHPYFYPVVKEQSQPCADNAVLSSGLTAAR

SMILES	IC50 [1] [µM]	Activity [2]
Cc1cn2c(Nc3cccc(C(C)C)c3)nc3cc(C(=O)O)ccc3c2n1	41	31%
O=C(O)c1ccc2c(c1)nc(Nc1cccc(Cl)c1)c1ccccc12	45	36%
N/C(=N\O)c1ccc2c(c1)nc(Nc1cccc(Cl)c1)c1cccnc12	> 99	inactive
Cn1ncc2c3ccc(C(=O)O)cc3nc(Nc3cccc(Cl)c3)c21	19	1%
Cc1cn2c(Nc3cccc(OC(F)(F)F)c3)nc3cc(C(=O)O)ccc3c2n1	37	42%
O=C(O)c1ccc2c(c1)nc(Nc1cccc(Cl)c1)c1cccnc12	6	13%
Cn1ncc2c(Nc3cccc(Cl)c3)nc3cc(C(=O)O)ccc3c21	42	35%
CC1=CN2C(Nc3cccc(Cl)c3)=Nc3cc(-c4nnn[nH]4)ccc3C2N1 (centres undefined)	73	80%
O=C(O)c1ccc2c(Cc3ccccc3)nc(Nc3cccc(Cl)c3)nc2c1	> 99	96%
O=C(O)c1ccc2c(c1)nc(Nc1cccc(Cl)c1)c1ncsc12	16	1%
O=C(O)c1ccc2c(c1)nc(Nc1cccc(Cl)c1)c1ccsc12	14	-1%
O=c1[nH]nc(-c2ccc3c(c2)nc(Nc2cccc(Cl)c2)c2cccnc23)o1	72	52%
Cc1cn2c(N(C)c3cccc(Cl)c3)nc3cc(C(=O)O)ccc3c2n1	> 99	75%
CC(C)c1cn2c(Nc3cccc(Cl)c3)nc3cc(C(=O)O)ccc3c2n1	30	105%
O=C(O)c1ccc2c(c1)nc(Nc1cccc(Cl)c1)n1ccnc21	14	31%
Cc1cn2c(NC34CC5CC(CC(C5)C3)C4)nc3cc(C(=O)O)ccc3c2n1	25	83%
CC1=CN2C(Nc3cccc(Cl)c3)=Nc3cc(-c4noc(=O)[nH]4)ccc3C2N1 (centres undefined)	92	105%
Cc1cn2c(Nc3ccnc(Cl)c3)nc3cc(C(=O)O)ccc3c2n1	71	73%
Cc1cn2c(Nc3cccc(Cl)c3)nc3cc(C(=O)O)ccc3c2n1	8	26%
CCc1cn2c(Nc3cccc(Cl)c3)nc3cc(C(=O)O)ccc3c2n1	24	20%
Cc1cn2c(NC3CCCCC3)nc3cc(C(=O)O)ccc3c2n1	> 99	72%
Cc1cn2c(Nc3cccc(C(C)(C)C)c3)nc3cc(C(=O)O)ccc3c2n1	24	102%
O=C(O)c1ccc2c(c1)nc(Nc1cccc(Cl)c1)n1cc(-c3ccccc3)nc21	9	114%
O=C(O)c1ccc2c(c1)nc(Nc1cccc(Cl)c1)n1cc(Cc3ccccc3)nc21	14	81%

SMILES	IC50 [1] [µM]	Activity [2]
O=C(O)c1ccc2c(c1)N=C(Nc1cccc(Cl)c1)N1CCCN=C21	> 99	87%
Cn1cnc2c3ccc(C(=O)O)cc3nc(Nc3cccc(Cl)c3)c21	62	55%
Cc1nsc2c1c(Nc1cccc(Cl)c1)nc1cc(C(=O)O)ccc12	11	-1%
Cc1cn2c(Nc3cccc(I)c3)nc3cc(C(=O)O)ccc3c2n1	10	11%
O=C(O)c1ccc2c(c1)nc(Oc1cccc(Cl)c1)c1ccncc12	51	4%
Cc1cn2c(Nc3cccc(C(F)(F)F)c3)nc3cc(C(=O)O)ccc3c2n1	30	48%
Cc1scc2c1c(Nc1cccc(Cl)c1)nc1cc(C(=O)O)ccc12	14	33%
O=C(O)c1ccc2c(c1)nc(Nc1cccc(Cl)c1)c1ccncc12 [SILMITASERTIB]	27	2%
Cc1cn2c(Nc3cccc(Cl)c3)nc3cc(P(=O)(O)O)ccc3c2n1	> 99	95%
O=C(O)c1ccc2c(c1)N=C(Nc1cccc(Cl)c1)N1CCN=C21	60	128%
Cc1cn2c(NC(C)(C)C)nc3cc(C(=O)O)ccc3c2n1	> 99	104%
CC1=CN2C(Nc3cccc(Cl)c3)=Nc3cc(C(N)=O)ccc3C2N1 (centres undefined)	> 99	109%
Cc1cn2c(Nc3cccc(F)c3)nc3cc(C(=O)O)ccc3c2n1	90	35%
CC(=O)Oc1ccc(COC(=O)c2ccc3c(c2)nc(Nc2cccc(Cl)c2)c2cccnc23)cc1	53	inactive
O=C(O)c1ccc2ccc(Nc3cccc(Cl)c3)nc2c1	50	20%
Cc1cn2c(Nc3cccc(C#N)c3)nc3cc(C(=O)O)ccc3c2n1	8	38%
COc1nc(Nc2cccc(Cl)c2)nc2cc(C(=O)O)ccc12	91	50%
Cc1cn2c(Nc3ccc(Cl)cc3)nc3cc(C(=O)O)ccc3c2n1	> 99	76%
Cc1cnc2c3ccc(C(=O)O)cc3nc(Nc3cccc(Cl)c3)n12	24	29%
Clc1cccc(Nc2nc3cc(-c4nnn[nH]4)ccc3c3ncccc23)c1	64	53%
O=C(O)c1ccc2c(c1)nc(Nc1cccc(Cl)c1)c1cnccc12	10	28%
O=C(O)c1ccc2c(Cc3ccccc3)cc(Nc3cccc(Cl)c3)nc2c1	> 99	101%
O=C(O)c1ccc2cnc(Nc3cccc(Cl)c3)nc2c1	62	-4%
